Data: article doi:10.1101/2022.06.06.494947v1 (biorxiv, 2022)

Molecular target: His-mASPDH (mouse ASPDH) (Mus musculus, UniProt Q9DCQ2)
Experiment: ITC, one-site model
Type: binding

Chain of His-mASPDH (mouse ASPDH) (Q9DCQ2 whole entry): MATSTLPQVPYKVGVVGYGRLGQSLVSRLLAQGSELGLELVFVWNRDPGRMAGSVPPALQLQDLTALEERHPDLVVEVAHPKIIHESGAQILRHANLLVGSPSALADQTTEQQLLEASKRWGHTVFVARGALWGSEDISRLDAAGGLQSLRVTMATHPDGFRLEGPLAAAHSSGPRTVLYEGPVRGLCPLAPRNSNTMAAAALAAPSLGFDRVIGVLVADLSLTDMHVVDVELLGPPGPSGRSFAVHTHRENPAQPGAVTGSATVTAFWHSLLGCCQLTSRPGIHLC

Nc1ncnc2c1ncn2[C@@H]1O[C@H](COP(=O)(O)OP(=O)(O)OC[C@H]2O[C@@H]([n+]3cccc(C(=O)O)c3)[C@H](O)[C@@H]2O)[C@@H](O)[C@H]1OP(=O)(O)O [NAADP] gave a Kd of 455 ± 231 nM.
For NC(=O)c1ccc[n+]([C@@H]2O[C@H](COP(=O)(O)OP(=O)(O)OC[C@H]3O[C@@H](n4cnc5c(N)ncnc54)[C@H](OP(=O)(O)O)[C@@H]3O)[C@@H](O)[C@H]2O)c1 [NADP], the Kd was 958 ± 203 nM.
